Laboratory results as given in patent US9790135B2, “Use of acylated carbonic esters of glycerol in agriculture” (AGRONUTRITION, priority 2013, dated 2017).
Values belong to the molecule of their own block, whether it stands above or below them.

What was measured:
[1] = Stability of the concentrated colloidal suspension towards sedimentation; type: physicochemical; conditions: concentrated colloidal suspension of MnCO3 (and MnSO4) in glycerol/water with the adjuvant
Experimental: The concentrated colloidal suspension is stable towards sedimentation over time—in particular over a period of 12 months—and is capable of being stored at a temperature of from −50° C. to +50° C. without any alteration of its rheological properties or of the stimulating and/or nutritive properties of the nutritive composition obtained by dilution of the concentrated colloidal suspension. Such a concentrated colloidal suspension can therefore be proposed for sale, marketed and distributed while retaining the stimulating and/or nutritive properties of the nutritive composition.
Cyclic glycerol carbonate (CG) of formula (VI), glycerol, water and manganese carbonate (MnCO3) in the form of a solid in the divided state, the solid particles of which have a mean size of approximately 2 μm, are mixed.

soya = experiment: Foliar manganese content of soya after foliar application of nutritive MnCO3 compositions; conditions: soya crop, 500 g manganese carbonate per hectare
[2] = system: winter common wheat (variety Quality, ARVALIS); experiment: Manganese content retained in leaves of treated winter common wheat; type: in vivo
Experimental: A powder of manganese carbonate (MnCO3, CAS 598-62-9) having a mean particle size of substantially approximately 2 μm is prepared by grinding. A concentrated colloidal suspension comprising 58.7% of this powder in a liquid composition comprising 1.5% glycerol carbonate acetate (ECG-C2, as described in Example 3 and in Table 1), […], 7.5% water and 1% jojoba oil, the indicated percentages being percentages by mass. The concentrated colloidal suspension is diluted in water to form a treatment composition (Mn385) according to the invention which is suitable for applying, by spraying on the cultivated surface area, a quantity of manganese carbonate of 385 g per hectare of cultivated surface area.
There are also prepared: • a concentrated colloidal suspension as described in Example 4, and this concentrated colloidal suspension is diluted in water to form a nutritive composition (Mn457) according to the invention which is suitable for applying, by spraying, a quantity of manganese carbonate of 457 g per hectare of surface area; and • a concentrated colloidal suspension as described in Example 7, and this concentrated colloidal suspension is diluted in water to form a nutritive composition (Mn509) according to the invention which is suitable for applying, by spraying, a quantity of manganese carbonate of 509 g per hectare of cultivated surface area.
The nutritive compositions Mn385, Mn457 and Mn509 according to the invention are applied by spraying to plots of 4 parcels having a surface area of 16 m^2 cultivated with winter common wheat (variety “Quality”, ARVALIS).
There are also prepared in parallel: • on a plot of 4 16 m^2 parcels, a crop of winter common wheat treated by spraying with water, as negative control; and • on a plot of 4 16 m^2 parcels, a crop of winter common wheat treated with MnCO3 on its own (without adjuvant according to the invention) at a rate of 500 g per hectare, as control treatment; and • on a plot of 4 16 m^2 parcels, a crop of winter common wheat treated, by way of comparison, with a formulation of MANTRAC 500 at a rate of 500 g of MnCO3 per hectare.
The manganese content retained in the leaves of treated common wheat is measured one day (D+1), seven days (D+7), 14 days (D+14) and 21 days (D+21) after application. To that end, the leaves are removed and washed three times with water to remove the manganese carbonate that has not been absorbed by the plant, and the manganese absorbed into the leaves is then assayed. The results are given in Table 2 below and are expressed in ppm (μg of manganese per gram of leaf).
The kinetics of daily MnCO3 assimilation in the leaves are measured.

Molecule: CC(=O)OCC1COC(=O)O1 (stereo not drawn) [ECG-C2, cyclic α/α′-acetylated glycerol carbonic ester]
stability of the concentrated colloidal suspension (settling of particles) [1]: stable over time

Molecule: CCCCCCC(=O)OCC1COC(=O)O1 (stereo not drawn) [ECG-C7, cyclic α/α′-heptanoylated glycerol carbonic ester]
stability of the concentrated colloidal suspension (settling of particles) [1]: stable over time

Molecule: manganese carbonate [MnCO3 on its own]
results relative to the negative control (water) (in words) ([2]; 500 g per hectare, without adjuvant): do not differ from the results obtained with the negative control
manganese content retained in the leaves, D + 14 ([2]; 14 days after application): 112.50 +/− 45.35 ppm (μg of manganese per gram of leaf)
manganese content retained in the leaves, D + 21 ([2]; 21 days after application): 95.43 +/− 5.95 ppm (μg of manganese per gram of leaf)
manganese content retained in the leaves, D + 1 ([2]; one day after application, leaves washed three times with water): 84.83 +/− 28.01 ppm (μg of manganese per gram of leaf)
manganese content retained in the leaves, D + 7 ([2]; seven days after application): 74.83 +/− 19.14 ppm (μg of manganese per gram of leaf)

More lines, main results first:

stability of the concentrated colloidal suspension (settling of particles) [1]: stable over time
Molecule: CCCCCCCCC(=O)OCC1COC(=O)O1 (stereo not drawn) [ECG-C9, cyclic α/α′-nonanoylated glycerol carbonic ester]

stability of the concentrated colloidal suspension (settling of particles) [1]: stable over time
Molecule: C=CCCCCCCCCC(=O)OCC1COC(=O)O1 (stereo not drawn) [ECG-C11:1, cyclic α/α′-undecylenoylated glycerol carbonic ester]

stability of the concentrated colloidal suspension (settling of particles) [1]: stable over time
Molecule: CCCCCCCC/C=C\CCCCCCCC(=O)OCC1COC(=O)O1 (stereo not drawn) [ECG-C18:1, cyclic α/α′-oleylated glycerol carbonic ester]
foliar manganese content reached (maximum) up to four days after application (soya): greater than 250 ppm
